According to ChEMBL document CHEMBL1201862, “PubChem BioAssay data set” (2004):
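These data come from cells grown in 96-well plates and exposed to compound for 48 hours at five concentrations. Abbreviation: GI50, concentration required for 50% inhibition of growth.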 Activity calls are given as the source filed them. Cut-off read from the data, not from the text of the source: active = GI50 up to about 1.1 µM and inactive = higher.

What was measured:
Assay in all cases: NCI anticancer screen, dose series, 48 h
[1] = system: SNB-19
[2] = system: CAKI-1
[3] = system: MCF7
[4] = system: HOP-62
[5] = system: DMS-273
[6] = system: HCC 2998
[7] = system: Hs-578T
[8] = system: IGROV-1
[9] = system: DLD-1
[10] = system: MDA-MB-231
[11] = system: RPMI-8226
[12] = system: RXF 393
[13] = system: HT-29
[14] = system: UACC-62
[15] = system: HCT-116
[16] = system: SNB-75
[17] = system: Malme-3M
[18] = system: ACHN
[19] = system: LOX IMVI
[20] = system: HL-60
[21] = system: CCRF-CEM
[22] = system: HCT-15
[23] = system: TK-10
[24] = system: HOP-18
[25] = system: DU-145
[26] = system: MDA-MB-435
[27] = system: SN12C
[28] = system: M14
[29] = system: SR
[30] = system: SF-539
[31] = system: SK-OV-3
[32] = system: SK-MEL-2
[33] = system: OVCAR-8
[34] = system: NCI/ADR-RES
[35] = system: NCI-H23
[36] = system: SF-268
[37] = system: MDA-N
[38] = system: M19-MEL
[39] = system: SF-295
[40] = system: BT-549
[41] = system: PC-3
[42] = system: XF498
[43] = system: KM-20L2
[44] = system: 786-0
[45] = system: DMS-114
[46] = system: HOP-92
[47] = system: NCI-H460
[48] = system: OVCAR-3
[49] = system: T47D
[50] = system: UO-31
[51] = system: MOLT-4
[52] = system: A498
[53] = system: OVCAR-5
[54] = system: EKVX
[55] = system: K562
[56] = system: OVCAR-4
[57] = system: U-251
[58] = system: A549
[59] = system: SW-620
[60] = system: NCI-H226
[61] = system: COLO 205
[62] = system: UACC-257
[63] = system: SK-MEL-28
[64] = system: KM12
[65] = system: SK-MEL-5

SMILES: C=Cc1cc(OC)c2c(c1)c(=O)oc1c2cc(OC)c2c(O)ccc(C3OC(C)C(O)C(C)(O)C3O)c21 (stereo not drawn)
- GI50 [1]: 37.2 nM (active)
- GI50 [2]: 46.2 nM (active)
- GI50 [3]: 22.5 nM (active)
- GI50 [4]: 22.5 nM (active)
- GI50 [5]: 54.5 nM (active)
- GI50 [6]: 49.3 nM (active)
- GI50 [7]: 2.95 nM (active)
- GI50 [8]: 40.3 nM (active)
- GI50 [9]: 67.1 nM (active)
- GI50 [10]: 3.45 nM (active)
- GI50 [11]: 29.4 nM (active)
- GI50 [12]: 22.5 nM (active)
- GI50 [13]: 34.1 nM (active)
- GI50 [14]: 31.7 nM (active)
- GI50 [15]: 23.5 nM (active)
- GI50 [16]: 30.2 nM (active)
- GI50 [17]: 76.4 nM (active)
- GI50 [18]: 0.409 nM (active)
- GI50 [19]: 22.5 nM (active)
- GI50 [20]: 22.5 nM (active)
- GI50 [21]: 22.5 nM (active)
- GI50 [22]: 48.9 nM
- GI50 [23]: 2.49 nM (active)
- GI50 [24]: 0.053 µM (active)
- GI50 [25]: 0.296 nM (active)
- GI50 [26]: 1.63 nM (active)
- GI50 [27]: 30.3 nM (active)
- GI50 [28]: 0.382 nM (active)
- GI50 [29]: 3.07 pM (active)
- GI50 [30]: 29.5 nM (active)
- GI50 [31]: 44.5 nM (active)
- GI50 [32]: 29.4 nM (active)
- GI50 [33]: 25 nM (active)
- GI50 [34]: 34.4 nM (active)
- GI50 [35]: 23.7 nM (active)
- GI50 [36]: 23.7 nM (active)
- GI50 [37]: 1.71 nM (active)
- GI50 [38]: 61.4 nM (active)
- GI50 [39]: 31.3 nM (active)
- GI50 [40]: 1.83 nM (active)
- GI50 [41]: 0.638 nM (active)
- GI50 [42]: 25.2 nM (active)
- GI50 [43]: 41 nM (active)
- GI50 [44]: 0.348 nM (active)
- GI50 [45]: 22.5 nM (active)
- GI50 [46]: 41 nM (active)
- GI50 [47]: 22.5 nM (active)
- GI50 [48]: 54.8 nM (active)
- GI50 [49]: 1.47 nM (active)
- GI50 [50]: 45.4 nM (active)
- GI50 [51]: 22.5 nM (active)
- GI50 [52]: 44.4 nM (active)
- GI50 [53]: 39.7 nM (active)
- GI50 [54]: 39.8 nM (active)
- GI50 [55]: 30.6 nM (active)
- GI50 [56]: 27.1 nM (active)
- GI50 [57]: 29.6 nM (active)
- GI50 [58]: 32.8 nM (active)
- GI50 [59]: 22.5 nM (active)

SMILES: C=C1CCCC(C)(C)[C@@H]1CC/C(C)=C/Cn1c2cccc(=O)c-2nc2ccccc21
- GI50 [1]: 4510 nM (inactive)
- GI50 [2]: 1770 nM (inactive)
- GI50 [3]: 2550 nM (inactive)
- GI50 [4]: 3480 nM (inactive)
- GI50 [5]: 1480 nM (inactive)
- GI50 [6]: 2060 nM (inactive)
- GI50 [8]: 1710 nM (inactive)
- GI50 [9]: 1260 nM (inactive)
- GI50 [11]: 2040 nM (inactive)
- GI50 [13]: 1770 nM (inactive)
- GI50 [14]: 771 nM (active)
- GI50 [15]: 1350 nM (inactive)
- GI50 [16]: 1410 nM (inactive)
- GI50 [19]: 1150 nM (inactive)
- GI50 [20]: 127 nM (active)
- GI50 [21]: 406 nM (active)
- GI50 [22]: 1180 nM
- GI50 [24]: 7.1 µM (inactive)
- GI50 [27]: 1590 nM (inactive)
- GI50 [30]: 1660 nM (inactive)
- GI50 [31]: 4150 nM (inactive)
- GI50 [60]: 3.99 µM (inactive)
- GI50 [32]: 2370 nM (inactive)
- GI50 [33]: 1550 nM (inactive)
- GI50 [34]: 656 nM (active)
- GI50 [61]: 1.96 µM (inactive)
- GI50 [35]: 1520 nM (inactive)
- GI50 [36]: 1390 nM (inactive)
- GI50 [38]: 1260 nM (inactive)
- GI50 [39]: 1450 nM (inactive)
- GI50 [42]: 2290 nM (inactive)
- GI50 [62]: 1.96 µM (inactive)
- GI50 [63]: 4.63 µM (inactive)
- GI50 [45]: 1090 nM (active)
- GI50 [46]: 1940 nM (inactive)
- GI50 [47]: 1210 nM (inactive)
- GI50 [48]: 3180 nM (inactive)
- GI50 [50]: 2770 nM (inactive)
- GI50 [51]: 410 nM (active)
- GI50 [52]: 3520 nM (inactive)
- GI50 [64]: 2.81 µM (inactive)
- GI50 [53]: 3250 nM (inactive)
- GI50 [54]: 4400 nM (inactive)
- GI50 [55]: 1070 nM (active)
- GI50 [56]: 1810 nM (inactive)
- GI50 [57]: 1530 nM (inactive)
- GI50 [58]: 1720 nM (inactive)
- GI50 [65]: 3.95 µM (inactive)
- GI50 [59]: 1610 nM (inactive)
